# According to patent US11166942B2 (PRAXIS BIOTECH LLC, priority 2018, dated 2021):
# Where two headings read alike, the source gives them in different places.
# Experiments:
# [1] = tested on: Chinese hamster ovary (CHO) cells; assay: Protein translation assay (puromycin labelling, CHO cells); format: cell-based; conditions: media alone = 100%; for activity at 1 µM: Cricetulus griseus, CHO
# Method: Chinese hamster ovary (CHO) cells were maintained at 37° C. and 5% CO2 in Dulbecco's Modified Eagle's Media (DMEM) supplemented with 10% fetal bovine serum, 2 mM L-glutamine, 100 U/ml penicillin, and 100 μg/ml streptomycin. After reaching 80% of confluence, cells were detached and seeded on 6 well plates in complete media, allowed to recover overnight and treated for 2 hours with 1 μM of the test compound (to assess protein synthesis levels in unstressed condition), or for 1 hour with 100 nM or 1 μM of the test compound and then co-treated with 300 nM Tg and 100 nM or 1 μM of the test compound (to assess the recovery of protein synthesis in a stressed condition). Cells treated with Tg alone were used as controls.
# After the 2 hours treatments, media were replaced by adding 10 μg/ml puromycin (Sigma Aldrich #P8833) in complete media for 30 min. Media were removed and cells were lysed with SDS-PAGE lysis buffer. Lysates were transferred to 1.5 ml tubes and sonicated for 3 min and total protein amount were quantified using BCA Protein Assay Kit (Pierce). Equal amount of protein (30 μg) was loaded on SDS-PAGE gels. Proteins were transferred onto 0.2 μm PVDF membranes (BioRad) and probed with primary antibodies diluted in Tris-buffered saline supplemented with 0.1% Tween 20 (Merck #S6996184 505) and 3% bovine serum albumin (Rockland #BSA-50).
# Puromycin (12D10) (Merck #MABE343) and β-actin (Sigma Aldrich #A5441) antibodies were used as primary antibody. A HRP-conjugated secondary antibody (Rockland) was employed to detect immune-reactive bands using enhanced chemiluminescence (ECL Western Blotting Substrate, Pierce). Quantification of protein bands was done by densitometry using ImageJ software.
# Percent increase of protein synthesis in unstressed cells (without Tg treatment) in the presence of media alone or certain test compounds is shown in Table 3 The percentage levels were normalized to the media alone condition, which correspond to 100% protein synthesis.
# Percent recovery of protein synthesis in stressed cells (with Tg treatment) due to the test compounds at 100 nM or 1 μM is also shown in Table 3. The levels were normalized to the media alone and to Tg alone conditions, which correspond to 100% and 0% respectively.
# ATF4 = ATF4 expression inhibition assay (ATF4 5'UTR luciferase reporter, Tg-stressed HEK293T cells); format: cell-based, human; conditions: for inhibition at 0.1 µM: read-out: % ATF4 inhibition at 100 nM; for inhibition at 1 µM: read-out: % ATF4 inhibition at 1 μM; for IC50: read-out: ATF4 inhbition IC50
# Method: The ATF4 reporter was prepared by fusing the human full length 5′UTR of ATF4 (NCBI Accession No. BC022088.2) upstream of the firefly luciferase coding sequence lacking the initiator methionine. The fused sequence was cloned into pLenti-EF1a-C-Myc-DDK-IRES-Puro cloning vector (Origen #PS100085) using standard methods. Virus production was carried out by using Lenti-X™ Packaging Single Shots Protocol (Clonetech #631276). Viral particles were used to transduce HEK293T cells (ATCC #CRL-3216, ATCC Manassas, Va.), which were subsequently selected with puromycin to generate stable cell line. Cells were maintained at 37° C. and 5% CO2 in DMEM-F12 (Hyclone #SH30023.02) supplemented with 10% heat-inactivated fetal bovine serum (Gibco #16000-044), 2 mM L-glutamine (Gibco #25030-081), 100 U/ml penicillin, and 100 μg/ml streptomycin (Gibco #15140-122).
# HEK293T cells carrying the ATF4 luciferase reporter were plated on 96-well plates (Nunc) at 10,000 cells per well. Cells were treated two days after seeding with 100 nM thapsigargin (Tg) (Sigma-Aldrich #T9033) in the presence of 100 nM or 1 μM. For the assessment of the half-maximal inhibitory concentration (IC50) for selected compounds, dose-response assays were performed. Compounds were serially diluted using DMSO ranging from 0.1 nM to 1 μM. Cells without treatment or cells treated with Tg alone were used as controls. Assay plates containing cells were incubated for 3 hours at 37° C.
# Luciferase reactions were performed using Luciferase Assay System (Promega #E1501) as specified by the manufacturer. Luminescence was read with an integration time of 1 s and a gain of 110 using a Cytation-5 multi-mode microplate reader (BioTek). Relative luminescence units were normalized to Tg treatment (0% inhibition) and untreated cells (100% inhibition) and the percentage of ATF4 inhibition was calculated.
# Percentages of ATF4 inhibition after induction with Tg in the presence of 100 nM or 1 μM of certain test compounds are shown in Table 2. Also shown in Table 2 is the calculated IC50 for certain test compounds. […] Accordingly, inhibition of ATF4 expression as a result of the test compound indicates suppression of the ISR pathway.
# [2] = 2 h, unstressed CHO cells, 1 μM, 2 hours, read-out: % Protein synthesis in unstressed cells (1 μM test compound)
# [3] = CHO cells stressed with 300 nM Tg, 1 μM compound, Tg alone = 0%, read-out: % Recovery of protein expression (1 μM test compound)
# [4] = unstressed CHO cells, 1 μM, 2 hours
# [5] = 100 nM thapsigargin, 3 hours, HEK293T ATF4 luciferase reporter
# [6] = Homo sapiens, HEK-293T, 3 h, 100 nM test compound, 100 nM thapsigargin, 3 hours, HEK293T ATF4 luciferase reporter
# [7] = Homo sapiens, HEK-293T, 3 h, 1 μM test compound, 100 nM thapsigargin, 3 hours, HEK293T ATF4 luciferase reporter
# [8] = 100 nM test compound, 100 nM thapsigargin, 3 hours, HEK293T ATF4 luciferase reporter
# [9] = 1 μM test compound, 100 nM thapsigargin, 3 hours, HEK293T ATF4 luciferase reporter
# [10] = Homo sapiens, HEK-293T, 3 h, 100 nM thapsigargin, 3 hours, HEK293T ATF4 luciferase reporter
Compound,"activity at 1 µM [1, 2]","activity at 1 µM [1, 3]","inhibition at 0.1 µM (ATF4; Homo sapiens, HEK-293T, 3 h)","inhibition at 1 µM (ATF4; Homo sapiens, HEK-293T, 3 h)","IC50 (ATF4; Homo sapiens, HEK-293T, 3 h)","% Protein synthesis in unstressed cells (1 μM test compound) [1, 4]",IC50 (ATF4; [5]),inhibition at 0.1 µM (ATF4; [6]),inhibition at 1 µM (ATF4; [7]),"% Recovery of protein expression (1 μM test compound) ([1]; CHO cells stressed with 300 nM Tg, 1 μM compound, Tg alone = 0%)",% ATF4 inhibition at 100 nM (ATF4; [8]),% ATF4 inhibition at 1 μM (ATF4; [9]),IC50 (ATF4; [10])
"O=C(NN1CCC(NCC(O)COc2ccc(Cl)c(F)c2)CC1)c1ccc2cc(Cl)ccc2n1 (stereo not shown) [Compound 20, 6-chloro-N-(4-((3-(4-chloro-3-fluorophenoxy)-2-hydroxypropyl)amino)piperidin-1-yl)quinoline-2-carboxamide]",155%,358%,24.7%,33.7%,> 10000 nM,,,,,,,,
"O=C(NN1CCC(NCC(O)COc2ccc(Cl)c(F)c2)CC1)c1cc2cc(Cl)ccc2o1 (stereo not shown) [Compound 21, 5-chloro-N-(4-((3-(4-chloro-3-fluorophenoxy)-2-hydroxypropyl)amino)piperidin-1-yl)benzofuran-2-carboxamide]",129%,236%,68.6%,86.9%,61.9 nM,,,,,,,,
"O=C(COc1ccc(Cl)c(F)c1)NN1CCC(NCCOc2ccc(Cl)c(F)c2)CC1 [Compound 22, 2-(4-chloro-3-fluorophenoxy)-N-(4-((2-(4-chloro-3-fluorophenoxy)ethyl)amino)piperidin-1-yl)acetamide]",94.8%,105%,87.5%,92.8%,10.3 nM,,,,,,,,
"O=C(NN1CCC(NCCOc2ccc(Cl)c(F)c2)CC1)c1ccc2cc(Cl)ccc2n1 [Compound 23, 6-chloro-N-(4-((2-(4-chloro-3-fluorophenoxy)ethyl)amino)piperidin-1-yl)quinoline-2-carboxamide]",178%,249%,67.2%,89.3%,55.6 nM,,,,,,,,
"O=C(NN1CCC(NCCOc2ccc(Cl)c(F)c2)CC1)c1cc2cc(Cl)ccc2o1 [Compound 24, 5-chloro-N-(4-((2-(4-chloro-3-fluorophenoxy)ethyl)amino)piperidin-1-yl)benzofuran-2-carboxamide]",144%,183%,88%,99.5%,32.2 nM,,,,,,,,
"O=C(COc1ccc(Cl)c(F)c1)NN1CCN(C(=O)COc2ccc(Cl)c(F)c2)CC1 [Compound 30, 2-(4-chloro-3-fluorophenoxy)-N-(4-(2-(4-chloro-3-fluorophenoxy)acetyl)piperazin-1-yl)acetamide]",49.3%,31.7%,29.5%,97.1%,187 nM,,,,,,,,
"O=C(COc1ccc(Cl)c(F)c1)NC1CCN(NC(=O)C2CNc3cc(Cl)ccc3O2)CC1 (stereo not shown) [Compound 31, 6-chloro-N-(4-(2-(4-chloro-3-fluorophenoxy)acetamido)piperidin-1-yl)-3,4-dihydro-2H-benzo[b][1,4]oxazine-2-carboxamide]",,,,,,155.4%,4.16 nM,94.8%,92.7%,,,,
O=C(COc1ccc(Cl)c(F)c1)NN1CCC(NC(=O)C2CNc3cc(Cl)ccc3O2)CC1 (stereo not shown) [Compound 32],,,,,,115.7%,12 nM,,,74.8%,85.7%,92.4%,
"O=C(NN1CCN(CCCOc2ccc(Cl)c(F)c2)CC1)C1CNc2cc(Cl)ccc2O1 (stereo not shown) [Compound 44, 6-chloro-N-(4-(3-(4-chloro-3-fluorophenoxy)propyl)piperazin-1-yl)-3,4-dihydro-2H-benzo[b][1,4]oxazine-2-carboxamide]",146%,120%,51.5%,82%,151 nM,,,,,,,,
"O=C(COc1ccc(Cl)cc1)NC1CCN(NC(=O)COc2ccc(Cl)cc2)CC1 [Compound 45, N,N′-(piperidine-1,4-diyl)bis(2-(4-chlorophenoxy)acetamide)]",114%,82.3%,92.7%,92.4%,2.6 nM,,,,,,,,
"O=C(COc1ccc(Cl)c(F)c1)NC1CCN(NC(=O)[C@H]2CNc3cc(Cl)ccc3O2)CC1 [Compound 46, (R)-6-chloro-N-(4-(2-(4-chloro-3-fluorophenoxy)acetamido)piperidin-1-yl)-3,4-dihydro-2H-benzo[b][1,4]oxazine-2-carboxamide]",114%,63.3%,,,,,,100%,99.3%,,,,3.6 nM
"O=C(COc1ccc(Cl)c(F)c1)NC1CCN(NC(=O)[C@@H]2CNc3cc(Cl)ccc3O2)CC1 [Compound 47, (S)-6-chloro-N-(4-(2-(4-chloro-3-fluorophenoxy)acetamido)piperidin-1-yl)-3,4-dihydro-2H-benzo[b][1,4]oxazine-2-carboxamide]",,,,,,89.4%,1.98 nM,,,,98.2%,99.0%,
"O=C(NN1CCN(C[C@@H](O)COc2ccc(Cl)c(F)c2)CC1)c1cc2cc(Cl)ccc2o1 [Compound 48, (R)-5-chloro-N-(4-(3-(4-chloro-3-fluorophenoxy)-2-hydroxypropyl)piperazin-1-yl)benzofuran-2-carboxamide]",85.3%,76.2%,,,,,,96.5%,97.4%,,,,3.36 nM
"O=C(NN1CCN(C[C@H](O)COc2ccc(Cl)c(F)c2)CC1)c1cc2cc(Cl)ccc2o1 [Compound 49, (S)-5-chloro-N-(4-(3-(4-chloro-3-fluorophenoxy)-2-hydroxypropyl)piperazin-1-yl)benzofuran-2-carboxamide]",82.3%,70.7%,,,,,,55.4%,100%,,,,69.7 nM
"O=C(COc1ccc(Cl)c(F)c1)NN1CCC(NC[C@H](O)COc2ccc(Cl)c(F)c2)CC1 [Compound 53, (S)-2-(4-chloro-3-fluorophenoxy)-N-(4-((3-(4-chloro-3-fluorophenoxy)-2-hydroxypropyl)amino)piperidin-1-yl)acetamide]",83.7%,46.2%,,,,,,36.1%,69.8%,,,,268 nM
